In ChEMBL document CHEMBL1142836 (Bioorg Med Chem Lett, 2005):

Biological target: Carbonic anhydrase 9 (Homo sapiens, UniProt Q16790)

Ki [nM] | Compound
31 | CN1CCN(CC(=O)Nc2nnc(S(N)(=O)=O)s2)CC1
90 | CC1CCN(CCCC(=O)Nc2ccc(S(N)(=O)=O)cc2)CC1
22 | NS(=O)(=O)c1nnc(NC(=O)CN2CCOCC2)s1
163 | NS(=O)(=O)c1ccc(NC(=O)CCCCN2CCOCC2)cc1
240 | NS(=O)(=O)c1ccc(NC(=O)CCN2CCN(Cc3ccccc3)CC2)cc1
181 | NS(=O)(=O)c1ccc(NC(=O)CN2CCOCC2)cc1
197 | CC1CCN(CCC(=O)Nc2ccc(S(N)(=O)=O)cc2)CC1
67 | NS(=O)(=O)c1nnc(NC(=O)CN2CCN(Cc3ccccc3)CC2)s1
235 | CN1CCN(CCC(=O)Nc2ccc(S(N)(=O)=O)cc2)CC1
184 | NS(=O)(=O)c1ccc(NC(=O)CCN2CCOCC2)cc1
35 | CC1CCN(CC(=O)Nc2nnc(S(N)(=O)=O)s2)CC1

Compound | Ki [nM]
NS(=O)(=O)c1ccc(NC(=O)CCN2CCC(Cc3ccccc3)CC2)cc1 | 248
NS(=O)(=O)c1ccc(NC(=O)CCCN2CCOCC2)cc1 | 246
CN1CCN(CCC(=O)Nc2nnc(S(N)(=O)=O)s2)CC1 | 33
